Measured values taken from PubChem BioAssay (NCI).
Several values for one entry are separate records, joined by “and”; a condition that tells them apart may be missing. Equal entries are not always repeated.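 Results reflect a 48-hour exposure of cells in 96-well plates to compound at five concentrations. Abbreviation: GI50, concentration required for 50% inhibition of growth. At the TGI there is no net growth.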

Experiments:
Assay in all cases: NCI anticancer screen, dose series, 48 h
[1] = test system: SR leukemia
[2] = test system: LOX IMVI melanoma
[3] = test system: OVCAR-5 ovarian
[4] = test system: RXF 393 renal
[5] = test system: M14 melanoma
[6] = test system: DMS 114 small cell lung
[7] = test system: UO-31 renal
[8] = test system: M19-MEL melanoma
[9] = test system: HCC-2998 colon
[10] = test system: NCI/ADR-RES ovarian

SMILES	TGI [1] [µM]	TGI [2]	TGI [3] [µM]	TGI [4]	TGI [5]	TGI [6] [µM]	TGI [7]	TGI [8] [µM]	TGI [9]	GI50 [1] [µM]	GI50 [2] [µM]	GI50 [4] [µM]	GI50 [5] [µM]	GI50 [7] [µM]	GI50 [9] [µM]	TGI [10] [µM]	GI50 [10] [µM]
CCCCCCCCCCCCCCCC(=O)NCC(COP(=O)([O-])OCC[N+](C)(C)C)OCC (configuration not stated)	18.6	34.4 µM	22	5.3 µM	24.7 µM	29.8	32.9 µM	16.2	3.1 µM	–	–	–	–	–	–	–	–
CCOC(=O)CC1=Nc2ccccc2SC1	–	> 100 µM	> 100	> 100 µM	> 100 µM	> 100	> 100 µM	> 100	> 100 µM	–	–	–	–	–	–	–	–
CCCCCCCCCCCCC(=O)OC(c1cnco1)c1nc(C(O)CC(O)C(O)C(C)O)co1 (configuration not stated)	2.5	> 42.4 µM	> 100	64.2 µM	> 63.8 µM	3.96	> 100 µM	> 52.7	> 100 µM	0.337	0.735	0.486	0.794	5.77	1.68	–	–
O=c1cc(-c2cccc(F)c2)[nH]c2cc3c(cc12)OCO3	–	6.4 µM and > 54.4 µM	> 100	4.84 µM	75 µM and 23.8 µM	2.24	75 µM and > 63.4 µM	75	0.357 µM and 0.538 µM	–	0.326	–	0.286	0.47	0.152	0.0497	–
O=c1[nH]c2ccccc2cc1C(Cl)=C(Cl)Cl	> 100	> 100 µM	> 100	> 100 µM	> 100 µM	> 100	> 100 µM	> 100	> 100 µM	–	–	–	–	–	–	–	–
FC(F)(F)c1nc(-c2ccccc2Cl)[nH]c1C(F)(F)F	1.68	1.23 µM	–	2.69 µM	4.83 µM	1.9	2.15 µM	3.77	–	–	–	–	–	–	–	–	–
COc1cc2c(c3c1C=CCO3)C(=O)c1ccccc1C2=O	> 100	78.6 µM	> 100	> 100 µM	> 100 µM	> 100	> 100 µM	> 100	> 100 µM	–	–	–	–	–	–	–	–
Cc1cc2c(cc1C)[n+](=O)c(C(=O)C/C(=N/NC(=O)c1ccccc1O)C(=O)Nc1ccccc1C(C)C)c(C)n2[O-]	–	> 100 µM	> 100	> 100 µM	> 100 µM	> 100	–	> 100	> 100 µM	–	–	–	–	–	–	–	–
COC(=O)C(c1[nH]nc2ccccc12)C(C(=O)OC)c1[nH]nc2ccccc12 (configuration not stated)	> 100	> 100 µM	> 100	66.3 µM	> 100 µM	83.8	> 100 µM	> 100	> 100 µM	–	–	–	–	–	–	–	–
COC(=O)C(=O)CC(=O)CCn1ncc(Cl)c(Cl)c1=O	5.76	15.3 µM	34.9	33.9 µM	26.7 µM	8.69	34.7 µM	15.3	13.1 µM	–	–	–	–	–	–	44.1	18.6
C#CCNC(=O)NC(CCCNC(=O)OCc1ccccc1)C(=O)OCc1ccccc1 (configuration not stated)	> 100	> 100 µM	> 100	95.2 µM	50.6 µM	> 100	> 100 µM	> 100	> 100 µM	–	–	–	–	–	–	–	–
N#CC1(c2nc3ccccc3o2)C(=O)C(=O)N(C2C3CC4CC(C3)CC2C4)C(=O)C1=O (configuration not stated)	> 100	> 100 µM	> 100	> 100 µM	> 100 µM	> 100	> 100 µM	> 100	> 100 µM	–	–	–	–	–	–	–	–
COc1ccc2cc1Oc1ccc(cc1)C[C@H]1c3cc(c(OC)cc3CCN1C)Oc1c(OC)c(OC)cc3c1[C@H](C2)N(C)CC3	–	–	–	12.1 µM and 6.61 µM	–	15.3	–	–	8.65 µM	0.0282	–	1.97	–	–	–	–	–
CCOc1ccc(NC(=O)CC2Sc3ccccc3NC2=O)cc1 (configuration not stated)	–	–	> 100	–	> 100 µM	> 100	> 100 µM	> 100	> 100 µM	–	–	–	–	–	–	–	–
CSC1=NC=CCN1C	–	> 100 µM	> 100	–	> 100 µM	> 100	> 100 µM	> 100	> 100 µM	–	–	–	–	–	–	–	–
COC(=O)C(C#N)=C1c2ccccc2Oc2ccccc21	–	> 100 µM	> 100	> 100 µM	> 100 µM	> 100	> 100 µM	> 100	> 100 µM	–	–	–	–	–	–	–	–
COC1O[C@H]2CCN(C(=O)OCc3ccccc3)[C@H]2[C@H]1OCc1ccccc1 (some centres not stated)	99.7	> 100 µM	> 100	> 100 µM	> 100 µM	> 86.2	97.7 µM	> 100	> 100 µM	–	–	–	–	–	–	–	–
O=C(C#Cc1c[nH]c(=O)[nH]c1=O)c1ccccc1Cl	–	26.7 µM	34	14.7 µM	28.8 µM	46.9	38.5 µM	–	30.8 µM	–	–	–	–	–	–	–	–
CCOC(=O)C1(CC)CCCCC(=O)N1 (configuration not stated)	–	> 100 µM	–	> 100 µM	> 100 µM	> 100	> 100 µM	> 100	> 100 µM	–	–	–	–	–	–	–	–
O=[N+]([O-])[C@@H]1C2C=CC(C2)[C@H]1Cl (some centres not stated)	> 100	> 100 µM	> 100	> 100 µM	> 100 µM	> 100	> 100 µM	> 100	–	–	–	–	–	–	–	–	–
CCOC(=O)C1=C(C)Nc2ccccc2S1	> 100	> 100 µM	> 100	> 100 µM	> 100 µM	> 100	> 100 µM	> 100	> 100 µM	–	–	–	–	–	–	–	–
O=C1NC(c2ccc(O)cc2)C2CCC1C2 (configuration not stated)	> 100	–	> 100	–	> 100 µM	> 100	> 100 µM	> 100	> 100 µM	–	–	–	–	–	–	–	–
O=C1CCCN(c2ccccc2)N1	> 100	> 100 µM	> 100	> 100 µM	> 100 µM	> 100	> 100 µM	> 100	> 100 µM	–	–	–	–	–	–	–	–
Cc1ccccc1C(C#N)C(=O)C(=O)Nc1nc([N+](=O)[O-])cs1 (configuration not stated)	–	> 100 µM	> 100	> 100 µM	> 100 µM	> 100	> 100 µM	> 100	> 100 µM	–	–	–	–	–	–	–	–
C=CCSC[C@H](NC(=O)COc1ccccc1)C(=O)NC(C(=O)OCc1ccc([N+](=O)[O-])cc1)=C(C)C	–	> 100 µM	–	> 100 µM	> 100 µM	> 100	> 100 µM	> 100	> 100 µM	–	–	–	–	–	–	–	–
